Data from patent US7678918B2, “Intermediates for imidazonaphthyridines” (3M Innovative Properties Company, priority 1997, dated 2010).

Tests used:
[1] = system: TNF; experiment: Cytokine Induction in Human Cells: tumor necrosis factor (TNF) secreted by PBMCs, ELISA; type: cell-based; conditions: 18 to 24 hours; also: call rule not given here
Procedure, shortened: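 Human donor PBMCs at 1.5-2×10^6 cells/mL in RPMI with 10% FBS were exposed to compound, generally at 0.1 to 100 μM (≤1% DMSO final), for 18 to 24 h at 37 °C. Secreted TNF in supernatant was measured by ELISA and reported as pg/mL.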

[2] = system: interferon α; experiment: Interferon (α) Induction in Human Cells (PBM's, 48 hours, A549 bioassay); type: cell-based; set-up: key: +: indicates that the compound induced interferon α at that particular concentration; −: indicates that the compound did not induce interferon α at that particular concentration; ±: indicates that the results were equivocal at that particular concentration; conditions: 48 hours incubation
Description: An in vitro human blood cell system was used to assess interferon induction by compounds of the invention. Activity is based on the measurement of interferon secreted into culture media. Interferon is measured by bioassay.
Whole blood was collected by venipuncture into EDTA vacutainer tubes. Peripheral blood mononuclear cells (PBM's) were separated from whole blood by using either LeucoPREP™ Brand Cell Separation Tubes (available from Becton Dickinson) or Ficoll-Paque® solution (available from Pharmacia LKB Biotechnology Inc, Piscataway, N.J.). The PBM's were suspended at 1×10^6/mL in RPMI 1640 media (available from GIBCO, Grand Island, N.Y.) containing 25 mM HEPES (N-2-hydroxyethylpiperazine-N′-2-ethanesulfonic acid) and L-glutamine (1% penicillin-streptomycin solution added) with 10% heat inactivated (56° C. for 30 minutes) autologous serum added. 200 μL portions of PBM suspension were added to 96 well (flat bottom) MicroTest III sterile tissue culture plates.
The compounds were solubilized in ethanol, dimethyl sulfoxide or tissue culture water then diluted with tissue culture water, 0.01N sodium hydroxide or 0.01N hydrochloric acid (The choice of solvent will depend on the chemical characteristics of the compound being tested.). Ethanol or DMSO concentration should not exceed a final concentration of 1% for addition to the culture wells. Compounds were initially tested in a concentration range of from about 0.1 μg/mL to about 5 μg/mL. Compounds which show induction at a concentration of 0.5 μg/mL were then tested in a wider concentration range.
The solution of test compound was added in a volume (less than or equal to 50 μL) to the wells containing 200 μL of diluted whole blood or of PBM's in media. Solvent and/or media was added to control wells (wells with no test compound) and as needed to adjust the final volume of each well to 250 μL. The plates were covered with plastic lids, vortexed gently and then incubated for 48 hours at 37° C. with a 5% carbon dioxide atmosphere.
Following incubation, the plates were covered with parafilm and then centrifuged at 1000 rpm for 10 to 15 minutes at 4° C. in a Damon IEC Model CRU-5000 centrifuge. Media (about 200 μL) was removed from 4 to 8 wells and pooled into 2 mL sterile freezing vials. Samples were maintained at −70° C. until analysis.
Interferon was determined by bioassay using A549 human lung carcinoma cells challenged with encephalomyocarditis. The details of the bioassay method have been described by G. L. Brennan and L. H. Kronenberg in “Automated Bioassay of Interferons in Micro-test Plates”, Biotechniques, June/July 78, 1983, incorporated herein by reference. Briefly stated the method is as follows: interferon dilutions and A549 cells are incubated at 37° C. for 12 to 24 hours. The incubated cells are infected with an inoculum of encephalomyocarditis virus. The infected cells are incubated for an additional period at 37° C. before quantifying for viral cytopathic effect. The viral cytopathic effect is quantified by staining followed by spectrophotometric absorbance measurements. Results are expressed as alpha reference units/mL based on the value obtained for NIH HU IF-L standard. The interferon was identified as essentially all interferon alpha by testing in checkerboard neutralization assays against rabbit anti-human interferon (beta) and goat anti-human interferon (alpha) using A549 cell monolayers challenged with encephalomyocarditis virus.

[3] = system: IFN; experiment: Cytokine Induction in Human Cells: interferon (IFN) secreted by PBMCs, A549/encephalomyocarditis bioassay; type: cell-based; conditions: 18 to 24 hours; also: call rule not given here
Procedure, shortened: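 Human PBMCs from healthy donors at 1.5-2×10^6 cells/mL in RPMI with 10% FBS, exposed to compounds (typically 0.1 to 100 μM, ≤1% DMSO) for 18 to 24 h at 37° C. Secreted IFN measured by A549/encephalomyocarditis virus cytopathic-effect bioassay, in alpha reference units/mL against NIH human leukocyte IFN standard.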

Row | Compound | TNF induction ([1]; Dose Concentration 1.0 μM) | TNF induction ([1]; Dose Concentration 10.0 μM) | TNF induction ([1]; Dose Concentration 100.0 μM) | Interferon (α) Induction in Human Cells ([2]; Dose Concentration 0.01 μg/mL) | Interferon (α) Induction in Human Cells ([2]; Dose Concentration 0.05 μg/mL) | Interferon (α) Induction in Human Cells ([2]; Dose Concentration 0.10 μg/mL) | Interferon (α) Induction in Human Cells ([2]; Dose Concentration 0.50 μg/mL) | Interferon (α) Induction in Human Cells ([2]; Dose Concentration 1.0 μg/mL) | Interferon (α) Induction in Human Cells ([2]; Dose Concentration 5.0 μg/mL) | Interferon (α) Induction in Human Cells ([2]; Dose Concentration 10.0 μg/mL) | Interferon (α) Induction in Human Cells ([2]; Dose Concentration 25.0 μg/mL) | Interferon (α) Induction in Human Cells ([2]; Dose Concentration 50.0 μg/mL) | IFN induction ([3]; Dose Concentration 1.0 μM) | IFN induction ([3]; Dose Concentration 10.0 μM) | IFN induction ([3]; Dose Concentration 100.0 μM) | melting point | TNF induction ([1]; Dose Concentration 0.1 μM) | IFN induction ([3]; Dose Concentration 0.1 μM)
1 | CCCCc1nc2c(N)nc3ncccc3c2n1CC(C)C [Example 12, 2-Butyl-1-(2-methylpropyl)-1H-imidazo[4,5-c][1,8]naphthyridin-4-amine] | + | + | + | − | − | + | + | + | + | + | + | + | + | + | + |  |  | 
2 | CC(C)(C)OC(=O)NCCCCNc1c([N+](=O)[O-])cnc2cccnc12 [Example 41, 1,1-Dimethylethyl N-{4-[(3-Nitro[1,5]naphthyridin-4-yl)amino]butyl}carbamate] |  |  |  |  |  |  |  |  |  |  |  |  |  |  |  | 137 to 138 °C |  | 
3 | CC(C)CNc1c(N)c2nnnn2c2cnccc12 [Example 20, N^5-(2-Methylpropyl)tetrazolo[1,5-a][1,7]naphthyridin-4,5-diamine] |  |  |  |  |  |  |  |  |  |  |  |  |  |  |  | 203 to 204.5 °C |  | 
4 | CC(C)CNc1c([N+](=O)[O-])c2nnnn2c2cnccc12 [Example 19, N^5-(2-Methylpropyl)-4-nitrotetrazolo[1,5-a][1,7]naphthyridin-5-amine] |  |  |  |  |  |  |  |  |  |  |  |  |  |  |  | 173 to 174 °C |  | 
5 | CC(C)CNc1c([N+](=O)[O-])c2nnnn2c2ncccc12 [Example 6, N^5-(2-Methylpropyl)-4-nitrotetrazolo[1,5-a][1,8]naphthyridin-5-amine] |  |  |  |  |  |  |  |  |  |  |  |  |  |  |  | 171 °C (dec.) |  | 
6 | CCCCc1nc2c(N)nc3c(c2n1CC(C)C)CCCN3 [Example 13, 2-Butyl-6,7,8,9-tetrahydro-1-(2-methylpropyl) 1H-imidazo[4,5-c][1,8]naphthyridin-4-amine] | + | + | + | − | + | + | + | + | + | + | + | + | + | + | + |  |  | 
7 | CCCCc1nc2c(N)nc3c(c2n1CC(C)C)NCCC3 [Example 40, 6,7,8,9-Tetrahydro-2-butyl-1-(2-methylpropyl)-1H-imidazo[4,5-c][1,5]naphthyridin-4-amine] | + | + | + | − | + | + | + | + | + | + | + | + | + | + | ± |  |  | 
8 | CCCCc1nc2c(N)nc3cccnc3c2n1CC(C)C [Example 39, 2-Butyl-1-(2-methylpropyl)-1H-imidazo[4,5-c][1,5]naphthyridin-4-amine] | + | + | − | − | − | + | + | + | + | + | + | + | + | + | − |  |  | 
9 | CCCCc1nc2c(N)nc3cccnc3c2n1CCNC(=O)c1cc(C(F)(F)F)cc(C(F)(F)F)c1 [Example 125] | − | + | + |  |  |  |  |  |  |  |  |  | + | + | + |  |  | 
10 | CCCCc1nc2c(N)nc3cccnc3c2n1CCNC(=O)Cc1ccc(SC)cc1 [Example 197] | + | + | + |  |  |  |  |  |  |  |  |  | − | + | + |  | − | −
11 | CCCCc1nc2c(N)nc3cccnc3c2n1CCNC(=O)CCCCCCCCC(=O)OC [Example 122] | − | + | + |  |  |  |  |  |  |  |  |  | − | + | + |  |  | 
12 | CCCCc1nc2c(N)nc3cccnc3c2n1CCNC(=O)CC(C)(C)C [Example 135] | − | + | + |  |  |  |  |  |  |  |  |  | − | + | + |  |  | 
13 | CCCCc1nc2c(N)nc3cccnc3c2n1CCNC(=O)c1ccccc1OC [Example 144] | + | + | + |  |  |  |  |  |  |  |  |  | + | + | + |  | − | +
14 | CCCCc1nc2c(N)nc3cccnc3c2n1CCCCNC(=O)c1ccc2ncccc2c1 [Example 107, N^1-[4-(4-Amino-2-butyl-1H-imidazo[4,5-c][1,5]naphthyridin-1-yl)butyl]-6-quinolinecarboxamide] | + | + | − |  |  |  |  |  |  |  |  |  | + | + | − |  | − | +
15 | CC(C)Cn1cnc2c(N)nc3ncccc3c21 [Example 9, 1-(2-Methylpropyl)-1H-imidazo[4,5-c][1,8]naphthyridin-4-amine hydrate] | − | − | − | − | − | − | − | − | − | − | − | − | − | + | − |  | − | ±
16 | CCCCc1nc2c(N)nc3cccnc3c2n1CCNS(C)(=O)=O [Example 116, N^1-[4-(4-Amino-2-butyl-1H-imidazo[4,5-c][1,5]naphthyridin-1-yl)ethyl]methanesulfonamide] | + | + | + |  |  |  |  |  |  |  |  |  | + | + | + |  | − | −
